Legend:
[1] = target: T1, MtVAO713 (Thermothelomyces thermophilus, UniProt G2QMS8); assay: GC/MS of conversion to 12-ketooleic acid; type: biochemical; conditions: 5 mM ricinoleic acid, 8 µM enzyme, 16 h; oxygen as electron acceptor; 50 mM Tris/Cl pH 8.0, 10% DMSO, 30 or 37 °C; very poor substrate
T1 construct: gene MYCTH_2309690; mature secreted protein, signal peptide (first 26 residues) removed; homologous expression in M. thermophila C1; monocovalent FAD (His159); N-glycosylated at Asn103 and Asn131; about 60 kDa on SDS-PAGE, 53 kDa by gel filtration

[2] = target: T2, MtVAO615 (Thermothelomyces thermophilus, UniProt G2QDQ9); assay: X-ray crystal structure ([…] and […] Å); type: binding; conditions: covalent; bicovalent 6-S-cysteinyl (Cys222) and 8alpha-N1-histidyl (His157) FAD; crystals at pH 7.5 and pH 5.0
T2 construct: gene MYCTH_2305637; mature secreted protein, signal peptide (first 26 residues) removed; homologous expression in M. thermophila C1; N-glycosylated; bicovalent FAD (His157, Cys222); predicted 60 kDa, about 70 kDa on SDS-PAGE
T2 sequence (G2QDQ9 27-574): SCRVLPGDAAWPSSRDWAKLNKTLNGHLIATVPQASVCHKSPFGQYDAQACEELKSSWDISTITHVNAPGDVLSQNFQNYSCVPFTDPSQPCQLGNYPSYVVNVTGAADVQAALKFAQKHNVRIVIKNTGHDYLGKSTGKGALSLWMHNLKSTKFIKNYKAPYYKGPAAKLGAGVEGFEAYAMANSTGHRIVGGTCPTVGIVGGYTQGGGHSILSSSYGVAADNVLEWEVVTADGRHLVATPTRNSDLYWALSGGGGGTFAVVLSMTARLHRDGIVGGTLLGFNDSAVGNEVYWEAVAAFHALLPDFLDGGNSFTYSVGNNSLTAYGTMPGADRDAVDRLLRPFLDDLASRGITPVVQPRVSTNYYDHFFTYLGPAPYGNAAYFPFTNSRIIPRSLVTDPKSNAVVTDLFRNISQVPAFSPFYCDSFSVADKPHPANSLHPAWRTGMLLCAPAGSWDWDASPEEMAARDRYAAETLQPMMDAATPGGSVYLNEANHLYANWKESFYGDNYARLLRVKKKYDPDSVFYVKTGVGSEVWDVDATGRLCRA

T1 sequence (G2QMS8 entry or part of it): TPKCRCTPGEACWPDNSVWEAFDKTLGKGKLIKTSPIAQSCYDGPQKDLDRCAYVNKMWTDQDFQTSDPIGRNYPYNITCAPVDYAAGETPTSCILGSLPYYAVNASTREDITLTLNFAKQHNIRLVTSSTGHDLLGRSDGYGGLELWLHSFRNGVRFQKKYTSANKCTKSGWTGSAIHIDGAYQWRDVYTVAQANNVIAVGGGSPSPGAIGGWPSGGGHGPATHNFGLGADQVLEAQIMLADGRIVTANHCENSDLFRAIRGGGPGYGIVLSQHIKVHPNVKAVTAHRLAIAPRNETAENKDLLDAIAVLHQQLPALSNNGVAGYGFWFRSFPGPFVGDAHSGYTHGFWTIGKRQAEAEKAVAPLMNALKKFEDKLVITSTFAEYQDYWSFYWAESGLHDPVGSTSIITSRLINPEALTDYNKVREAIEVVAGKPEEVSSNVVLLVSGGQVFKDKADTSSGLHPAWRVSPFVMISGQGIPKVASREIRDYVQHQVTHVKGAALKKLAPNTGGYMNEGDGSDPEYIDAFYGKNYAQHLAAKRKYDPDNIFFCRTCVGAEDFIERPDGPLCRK

| SMILES | GC/MS of conversion to 12-ketooleic acid [1] | X-ray crystal structure (2.0 and 2.2 Å) [2] |
| --- | --- | --- |
| CCCCCC[C@@H](O)C/C=C\CCCCCCCC(=O)O [ricinoleic acid] | The conversion of ricinoleic acid by MtVAO713 was confirmed by GC/MS analysis |  |
| Cc1cc2nc3c(=O)[nH]c(=O)nc-3n(C[C@H](O)[C@H](O)[C@H](O)COP(=O)(O)OP(=O)(O)OC[C@H]3O[C@@H](n4cnc5c(N)ncnc54)[C@H](O)[C@@H]3O)c2cc1C [FAD] |  | MtVAO615 harbors a bicovalently linked 6-S-cysteinyl-8α-N1-histidyl FAD |
